According to patent US7750181B2, “Antiproliferative agents” (EPX Research Limited, priority 2002, dated 2010):
Several values for one entry are separate records, joined by “and”; a condition that tells them apart may be missing. Equal values may be shown once.

Tests used:
[1] = system: H460 non-small cell lung cancer human xenograft; assay: Antitumour test, H460 NSCLC human xenograft; format: in vivo, Nu nude mice; details: 500 mg/kg, i.p. days 0-4
Experimental: (§1) Fragments of the non-small cell lung cancer, H460, and DLD-1 colon cancer human xenografts were transplanted sub-cutaneously in both flanks of 14 female Nu nude mice from an inbred colony (B7K Universal, Hull, UK). Mice received CRM diet (SDS, WItham, UK) and water ad libitum. All experiments were carried out under a project license issued by the UK Home Office, and UKCCCR guidelines were followed throughout.
(§2) Therapy commenced once tumours had grown to a sufficient size to be measured accurately (minimum 4 mm×4 mm), which was 10 days for H460 and 19 days for DLD-1. 10 tumours grew sufficiently to use in 7 mice for both the test and untreated groups.
In the case of H460, the compound of Example 4 was administered at a concentration of 500 mg/kg body weight/day, intraperitoneally (i.p.), daily for 5 days (designated days 0-4). Animals were monitored daily for any toxicity effects, and tumours were measured, and weights recorded daily over the period of therapy and then on day 7 (untreated and test groups), and day 8 (test group). On day 7 for the untreated group, and day 8 for the test group, the largest tumour diameter was greater than the maximum permitted 17 mm, and subjects were then euthenised by UK Home Office Schedule 1 methods.
(§3) In both cases tumour volumes were assessed by caliper measurements of 2 perpendicular diameters and the volumes estimated using the following equation: Volumes−(a^2×b)/2, where a is the smaller, and b the larger diameter of the two. The effects of the therapy were determined from the difference in tumour volume-doubling time between treated and control groups, and the significance of any tumour growth delay determined using the Mann-Whitney U Test.

[2] = system: DLD-1 colon cancer human xenograft; assay: Antitumour test, DLD-1 colon cancer human xenograft; format: in vivo, Nu nude mice; details: 500 mg/kg, i.p. days 0-4
Experimental: as §1, §2
[…], and assessing tumour growth compared to a control untreated group until the tumours have reached the maximum permitted size (day 16 control and tested group).
as §3

[3] = system: MAC15 tumour, murine colon cancer; assay: Tumour growth inhibition, MAC15 tumour transplanted s.c.; format: in vivo, NMRI mice; details: intraperitoneal; for Tumour weight: individual animals
Experimental: (§4) Pure strain NMRI mice (age 6-8 weeks) from our inbred colony were used for transplanting MAC (murine colon cancer) tumours, M5076 reticulum cell sarcoma (ovarian) were transplanted in BDF1 mice purchased from Harlan, Bicester, U.K. Animals were fed on RM3E diet (Lillco-England) and water ad libitum.
The tumour is routinely passaged as an ascites. Approximately 2×10^5 cells were transplanted subcutaneously in saline in a volume of 0.2 ml. Mice were randomised in groups of 5-7 animals per group. Untreated or vehicle controls were included. Treatment commenced two days after transplant. Body weight was recorded daily. The effects of chemotherapy were assessed between 7-9 days after transplant. Mice were killed and the effects measured by the differences in tumour weights and expressed as: % T/C, i.e. […] Body weight changes were recorded in order to assess toxicity.

[4] = system: MAC 13 tumour, murine colon cancer; assay: Tumour growth inhibition, MAC 13 tumour transplanted s.c.; format: in vivo, NMRI mice; details: 400 mg/kg body weight, intraperitoneal, days of treatment 1-5
Description: as §4
(§5) Approximately 2×2 mm of MAC13 tumour fragments were transplanted subcutaneously in the inguinal region via a trocar while the M5076 was homogenised and 1×10^6 cells transplanted intramuscularly in the inguinal region. Tumour bearing mice were randomised in groups of 5-7 animals per group. Treatment commenced one day after transplant for M5076 and two days for MAC13. Untreated or vehicle controls were included. Daily weights were recorded. Chemotherapy effects were assessed on day 14 or thereabouts depending on the tumour sizes and condition of the animals. Mice were killed and the effects of the chemotherapy were assessed by the differences in tumour weights and expressed as: % T/C, i.e. inhibition=100-Treated weight/Control weight×100% Body weight changes were recorded in order to assess toxicity. MAC15A

[5] = system: M5076 tumour, ovarian cancer (reticulum cell sarcoma); assay: Tumour growth inhibition, M5076 tumour transplanted i.m.; format: in vivo, BDF1 mice; details: 400 mg/kg body weight, intraperitoneal, days of treatment 1-11
Description: as §4, §5

[6] = RTV2 = relative tumour volume doubling
[7] = 300 mg/kg body weight, days of treatment 1-5
[8] = 400 mg/kg body weight, days of treatment 1-5

## CN1C(=O)C(Cl)=C(Cl)C(=O)C1O (centres unmarked) [Example 4, 3,4-dichloro-6-hydroxy-1-methyl-2,5-dioxo-1.6-dihydropyridine]
[1]
  Maximum % weight loss: 6.9%
  Median time RTV2: 6.4 days
[1]; [6]
  Mean time to RTV2: 6.2 days
[1]; versus untreated controls
  Growth delay: 3.9 days
[2]
  Maximum % weight loss: 4.3%
  Median time RTV2: 9.8 days
[2]; [6]
  Mean time to RTV2: 9.9 days
[2]; versus untreated controls
  Growth delay: 6.7 days
[3]; 500 mg/kg body weight, day 1-5
  % Tumour growth inhibition: 86%
  Mean tumour weight: 0.056 g
[3]; 500 mg/kg body weight, day 1-5, 500 mg/kg
  Tumour weight: 0.076 g and 0.033 g and 0.0 g (3×) and 0.090 g and 0.060 g and 0.134 g and 0.114 g

## CN(C=O)C(=O)/C(Cl)=C(/Cl)C(=O)O [Example 3, (Z)-2,3-dichloro-4-[N-formyl-N-methylamino]-4-oxo-but-2-enoic acid]
[4]
  % Tumour growth inhibition: 92%
  Mean tumour weight: 0.031 g
[4]; individual animals, 400 mg/kg
  Tumour weight: 0.053 g and 0.045 g and 0.030 g and 0.023 g and 0.0 g and 0.036 g
[5]
  % Tumour growth inhibition: 97%
  Mean tumour weight: 0.008 g
[5]; individual animals, 400 mg/kg
  Tumour weight: 0 g (5×) and 0.052 g
[3]; [7]
  % Tumour growth inhibition: 68%
  Mean tumour weight: 0.195 g
[3]; [8]
  % Tumour growth inhibition: 81%
  Mean tumour weight: 0.117 g
[3]; 300 mg/kg body weight, days of treatment 1-5, 300 mg/kg
  Tumour weight: 0.194 g and 0.201 g and 0.190 g and 0.176 g and 0.214 g
[3]; 400 mg/kg body weight, days of treatment 1-5, 400 mg/kg
  Tumour weight: 0.074 g and 0.094 g and 0.190 g and 0.096 g and 0.132 g
